US20060046992A1, “HETEROBICYCLIC COMPOUNDS” (priority 2002, published 2006)

Tests used:
MIN6 cell [1] = experiment: Insulin secretion promoting activity for cultured β-cells, in the presence of 14.5 mmol/L glucose; type: cell-based; conditions: none: 148.4
Description: (§1) Further, the insulin secretion of the MIN6 cell is prompted in response to sulfonylurea-agents such as glibenclamide, which are used as a medicament for treatment of diabetes (Cellular Signalling, vol. 5, p. 777-786, 1993).
Culture of the MIN6 cells above and insulin secretion test utilizing the MIN6 cells were performed according to the methods described in Diabetologia, vol. 36, p. 1139-1145, 1993. The effect of a compound on the insulin secretion in the presence of 14.5 mmol/L glucose was determined by measuring insulin amounts in cell culture supernatants collected as follows. MIN6 cells cultured on a 24-well plate were washed twice by using 1 mL of Buffer A (119 mmol/L sodium chloride, 4.74 mmol/L potassium chloride, 2.54 mmol/L calcium chloride, 1.19 mmol/L magnesium sulfate, 1.19 mmol/L potassium dihydrogenphosphate, 10 mmol/L 2-[4-(2-hydroxyethyl)-1-piperazinyl]ethanesulfonic acid, and 0.1% bovine serum albumin, pH 7.3) containing 2 mmol/L glucose, and then were incubated in 1 mL of Buffer A containing 2 mmol/L glucose at 37° C. for 45 minutes. After the incubation, the culture supernatant was changed to Buffer A (0.9 mL) containing a test compound at various concentrations and 2 mmol/L glucose, and the cells were further incubated at 37° C. for 15 minutes. […]

MIN6 cell [2] = experiment: Insulin secretion promoting activity for cultured β-cells, in the presence of 5 mmol/L glucose; type: cell-based; conditions: for Insulin secretion amount (ng/mL) Avg: 5 mmol/L glucose, None: 51.2; for secretion promoting action at low glucose concentration (in words): glucose at a low concentration (5 mmol/L)
Description: as §1
Separately, the effect of a compound on the insulin secretion in the presence of 5 mmol/L glucose was determined by measuring insulin amounts in cell culture supernatants collected as follows. MIN6 cells cultured on a 24-well plate were washed twice by using 1 mL of Buffer A containing 5 mmol/L glucose, and then the culture supernatant was changed to Buffer A (0.9 mL) containing a test compound at various concentrations and 5 mmol/L glucose. Then, the cells were incubated at 37° C. for 45 minutes (final glucose concentration: 5 mmol/L), and the culture supernatant was collected.
After the culture supernatant was diluted with a phosphate buffer containing 1% bovine serum albumin, 0.1% Tween 20, 0.12% disodium ethylenediaminetetraacetate (EDTA), and 0.1% sodium azide, antibody-reactive insulin secreted in the culture supernatant was qualified by enzyme immunoassay or radio immunoassay. The insulin level was indicated as the amount of human insulin (ng/mL). The results are indicated as average (avg) of 3 to 4 samples with standard error values (se).

Structure (SMILES) | Insulin secretion amount (ng/mL) avg (MIN6 cell [1]; drug concentration 0.1 μmol/L) | Insulin secretion amount (ng/mL) Avg (MIN6 cell [2]; drug concentration 0.1 μmol/L) | secretion promoting action at low glucose concentration (in words) (MIN6 cell [2]) | Insulin secretion amount (ng/mL) avg (MIN6 cell [1]; drug concentration 10 μmol/L) | Insulin secretion amount (ng/mL) Avg (MIN6 cell [2]; drug concentration 10 μmol/L)
COc1ccc(Cl)cc1C(=O)NCCc1ccc(S(=O)(=O)NC(=O)NC2CCCCC2)cc1 [Glibenclamide] | 177.8 ng/mL | 156.8 ng/mL | showed marked secretion promoting action |  | 
CC(C)[C@H]1CC[C@H](C(=O)N[C@H](Cc2ccccc2)C(=O)O)CC1 [AY4166] |  |  | showed marked secretion promoting action | 195.1 ng/mL | 170.8 ng/mL
